Results from ChEMBL document CHEMBL5550214, “Expanding Structure-Activity Relationships of Human Urotensin II Peptide Analogues: A Proposed Key Role of the N-Terminal Region for Novel Urotensin II Receptor Modulators” (J Med Chem, 2024).
Each block holds one compound with its values, some of them ahead of it. The source made the active and inactive calls. No cut-off for these calls is given here.

Columns and labels:
Aortic ring [1] = assay: Induction of contraction in Albino Wistar rat aortic ring assessed as Emax of [Ala1]U-II at 10 uM incubated for 30 mins in presence of [Ala1]U-II (reference value: 391.6 +/- 38.83 dyne/mg); format: functional, Aorta; conditions: 0.5 h
Aortic ring [2] = assay: Induction of contraction in Albino Wistar rat aortic ring assessed as Emax of U-II(4-11) at 1 uM incubated for 30 mins in presence of U-II(4-11) (reference value: 159.8 +/- 7.3 dyne/mg); format: functional, Aorta; conditions: 0.5 h
Aortic ring [3] = assay: Induction of contraction in Albino Wistar rat aortic ring assessed as Emax of [Ala1]U-II at 1 uM incubated for 30 mins in presence of [Ala1]U-II (reference value: 153.3 +/- 10.75 dyne/mg); format: functional, Aorta; conditions: 0.5 h
Aortic ring [4] = assay: Induction of contraction in Albino Wistar rat aortic ring assessed as Emax of hU-II at 1 uM incubated for 30 mins in presence of hU-II (reference value: 214.5 +/- 10.51 dyne/mg); format: functional, Aorta; conditions: 0.5 h
Aortic ring [5] = assay: Induction of contraction in Albino Wistar rat aortic ring assessed as Emax of hU-II at 0.1 uM incubated for 30 mins in presence of hU-II (reference value: 224.8 +/- 11.71 dyne/mg); format: functional, Aorta; conditions: 0.5 h
Aortic ring [6] = assay: Induction of contraction in Albino Wistar rat aortic ring assessed as Emax of U-II(4-11) at 10 uM incubated for 30 mins in presence of U-II(4-11) (reference value: 152.4 +/- 5.1 dyne/mg); format: functional, Aorta; conditions: 0.5 h
[7] = target: T1, Urotensin-2 receptor (Homo sapiens) (UniProt Q9UKP6); assay: Modulation of human UTR stably expressed in HEK293 cells assessed as increase in Ca2+ level at 0.1 to 100 nM by Fura 2-AM dye based calcium mobilization assay; format: functional, cell-based; conditions: dose 0.1-100 nM
T1 sequence (whole entry): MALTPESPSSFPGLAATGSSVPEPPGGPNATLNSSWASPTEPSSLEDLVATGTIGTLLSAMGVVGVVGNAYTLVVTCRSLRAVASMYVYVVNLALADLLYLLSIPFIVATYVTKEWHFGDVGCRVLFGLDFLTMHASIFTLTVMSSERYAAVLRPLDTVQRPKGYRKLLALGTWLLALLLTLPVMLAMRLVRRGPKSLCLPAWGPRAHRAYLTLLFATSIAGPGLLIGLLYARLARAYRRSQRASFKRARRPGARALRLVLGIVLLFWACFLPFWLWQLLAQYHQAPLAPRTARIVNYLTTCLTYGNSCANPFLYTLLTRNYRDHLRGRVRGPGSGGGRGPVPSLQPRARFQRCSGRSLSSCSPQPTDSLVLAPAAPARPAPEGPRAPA

Aortic ring [8] = assay: Induction of contraction in Albino Wistar rat aortic ring assessed as Emax of [Ala1]U-II at 0.1 uM incubated for 30 mins in presence of [Ala1]U-II (reference value: 308.1 +/- 21.4 dyne/mg); format: functional, Aorta; conditions: 0.5 h
Aortic ring [9] = assay: Induction of contraction in Albino Wistar rat aortic ring assessed as Emax of U-II(4-11) at 0.1 uM incubated for 30 mins in presence of U-II(4-11) (reference value: 159.8 +/- 7.39 dyne/mg); format: functional, Aorta; conditions: 0.5 h
Aortic ring [10] = assay: Induction of contraction in Albino Wistar rat aortic ring at 1 to 30 nM; format: functional, tissue-based; conditions: Aorta, dose 1-30 nM
Aortic ring [11] = assay: Induction of contraction in Albino Wistar rat aortic ring assessed as Emax of hU-II at 10 uM incubated for 30 mins in presence of hU-II (reference value: 238.4 +/- 9.53 dyne/mg); format: functional, Aorta; conditions: 0.5 h
Aortic ring [12] = assay: Induction of contraction in Albino Wistar rat aortic ring assessed as Emax of [Ala1]U-II at 10 uM incubated for 30 mins in presence of [Ala1]U-II (reference value: 220.3 +/- 17.48 dyne/mg); format: functional, Aorta; conditions: 0.5 h
Aortic ring [13] = assay: Induction of contraction in Albino Wistar rat aortic ring assessed as Emax of hU-II at 1 uM incubated for 30 mins in presence of hU-II (reference value: 279.9 +/- 11.02 dyne/mg); format: functional, Aorta; conditions: 0.5 h
Aortic ring [14] = assay: Induction of contraction in Albino Wistar rat aortic ring assessed as Emax of [Ala1]U-II at 0.1 uM incubated for 30 mins in presence of [Ala1]U-II (reference value: 391.6 +/- 38.83 dyne/mg); format: functional, Aorta; conditions: 0.5 h
Aortic ring [15] = assay: Induction of contraction in Albino Wistar rat aortic ring assessed as Emax of hU-II at 10 uM incubated for 30 mins in presence of hU-II (reference value: 251.4 +/- 15.43 dyne/mg); format: functional, Aorta; conditions: 0.5 h
Aortic ring [16] = assay: Induction of contraction in Albino Wistar rat aortic ring assessed as Emax of U-II(4-11) at 10 uM incubated for 30 mins in presence of U-II(4-11) (reference value: 159.8 +/- 7.39 dyne/mg); format: functional, Aorta; conditions: 0.5 h
Aortic ring [17] = assay: Induction of contraction in Albino Wistar rat aortic ring assessed as Emax of U-II(4-11) at 1 uM incubated for 30 mins in presence of U-II(4-11) (reference value: 242.6 +/- 20.63 dyne/mg); format: functional, Aorta; conditions: 0.5 h
Aortic ring [18] = assay: Induction of contraction in Albino Wistar rat aortic ring assessed as Emax of hU-II at 0.1 uM incubated for 30 mins in presence of hU-II (reference value: 238.4 +/- 9.53 dyne/mg); format: functional, Aorta; conditions: 0.5 h
Aortic ring [19] = assay: Induction of contraction in Albino Wistar rat aortic ring assessed as Emax of [Ala1]U-II at 1 uM incubated for 30 mins in presence of [Ala1]U-II (reference value: 323 +/- 30.45 dyne/mg); format: functional, Aorta; conditions: 0.5 h
Aortic ring [20] = assay: Induction of contraction in Albino Wistar rat aortic ring assessed as Emax of U-II(4-11) at 0.1 uM incubated for 30 mins in presence of U-II(4-11) (reference value: 152.4 +/- 5.1 dyne/mg); format: functional, Aorta; conditions: 0.5 h

Activity ([7]; filed as modulator): Active
SMILES: CC(C)[C@H](NC(=O)[C@@H]1CSSC(C)(C)[C@H](NC(=O)[C@H](CC(=O)O)NC(=O)[C@@H]2CCCN2C(=O)[C@@H](NC(=O)[C@@H](N)CCC(=O)O)[C@@H](C)O)C(=O)N[C@@H](Cc2ccccc2)C(=O)N[C@H](Cc2c[nH]c3ccccc23)C(=O)N[C@@H](CCCN)C(=O)N[C@@H](Cc2ccc(O)cc2)C(=O)N1)C(=O)O
Emax (Aortic ring [1]): 727.7 dyn/mg
Emax (Aortic ring [2]): 166.6 dyn/mg
Emax (Aortic ring [3]): 146.8 dyn/mg
Emax (Aortic ring [4]): 143.5 dyn/mg
Emax (Aortic ring [5]): 251.6 dyn/mg
Emax (Aortic ring [6]): 231 dyn/mg
Emax (Aortic ring [8]): 216.19 dyn/mg
Emax (Aortic ring [9]): 223.4 dyn/mg
Activity (Aortic ring [10]): inactive
Emax (Aortic ring [11]): 327 dyn/mg

Activity [7]: inactive
SMILES: CC(C)[C@H](NC(=O)[C@@H]1CSSC(C)(C)[C@H](NC(=O)[C@H](CC(=O)O)NC(=O)[C@@H]2CCCN2C(=O)[C@@H](NC(=O)[C@@H](N)CCO)[C@@H](C)O)C(=O)N[C@@H](Cc2ccccc2)C(=O)N[C@H](Cc2c[nH]c3ccccc23)C(=O)N[C@@H](CCCN)C(=O)N[C@@H](Cc2ccc(O)cc2)C(=O)N1)C(=O)O
Emax (Aortic ring [12]): 148.9 dyn/mg
Emax (Aortic ring [13]): 188.6 dyn/mg
Emax (Aortic ring [14]): 251.5 dyn/mg
Emax (Aortic ring [15]): 181.9 dyn/mg
Emax (Aortic ring [16]): 111.3 dyn/mg
Emax (Aortic ring [17]): 93.38 dyn/mg
Emax (Aortic ring [18]): 179.2 dyn/mg
Emax (Aortic ring [19]): 119.1 dyn/mg
Activity (Aortic ring [10]): inactive
Emax (Aortic ring [20]): 120.9 dyn/mg
